Several values for one entry are separate records, joined by “and”; a condition that tells them apart may be missing. Identical values can stand only once. Toxic doses and inconclusive results are not listed. Rule as the data show it: active = T/C of 150% or more; inactive = T/C below 125%.
System: L1210 leukemia ip in BDF1 mice, survival T/C
Test: NCI In Vivo Anticancer Drug Screen. Data for tumor model L1210 Leukemia (intraperitoneal) in B6D2F1 (BDF1) mice
Conditions: endpoint: mean survival time, higher = longer survival
Summary of the method: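 Ratio derived from survival: compound-dosed mice over vehicle-dosed mice, all bearing a transplantable tumor.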

[1] = dose: 100.0 mg/kg/injection, schedule: Q01DX009 (ip), vehicle: saline with Tween-80
[2] = dose: 200.0 mg/kg/injection, schedule: Q01DX009 (ip), vehicle: saline with Tween-80
[3] = dose: 100.0 mg/kg/injection, schedule: Q04DX003 (ip), vehicle: saline with Tween-80

Measured: T/C

O=P(O)(c1ccccc1)c1ccccc1
inactive: dose: 100.0 mg/kg/injection, schedule: Q04DX002 (ip), vehicle: Klucel (hydroxypropylcellulose) (HPC) 102 % of control and 86 % of control | dose: 200.0 mg/kg/injection, schedule: Q04DX002 (ip), vehicle: Klucel (hydroxypropylcellulose) (HPC) 93 % of control and 89 % of control | dose: 400.0 mg/kg/injection, schedule: Q04DX002 (ip), vehicle: Klucel (hydroxypropylcellulose) (HPC) 96 % of control

COC(=O)C1CCN(Cc2ccccc2)CC1=O (stereo not given)
inactive: dose: 50.0 mg/kg/injection, schedule: Q01DX001 (ip), vehicle: saline 110 % of control | dose: 100.0 mg/kg/injection, schedule: Q01DX001 (ip), vehicle: saline 104 % of control | dose: 200.0 mg/kg/injection, schedule: Q01DX001 (ip), vehicle: saline 104 % of control | dose: 400.0 mg/kg/injection, schedule: Q01DX001 (ip), vehicle: saline 104 % of control

O=[N+]([O-])C1CC=CCC1C(Cl)(Cl)Cl (stereo not given)
inactive: dose: 5.0 mg/kg/injection, schedule: Q04DX003 (ip), vehicle: saline sonified 95 % of control | dose: 10.0 mg/kg/injection, schedule: Q04DX003 (ip), vehicle: saline sonified 110 % of control | dose: 20.0 mg/kg/injection, schedule: Q04DX003 (ip), vehicle: saline sonified 98 % of control

NC(=O)c1cc([N+](=O)[O-])c(N)c([N+](=O)[O-])c1
inactive: dose: 100.0 mg/kg/injection, schedule: Q01DX001 (ip), vehicle: saline with Tween-80 100 % of control | dose: 200.0 mg/kg/injection, schedule: Q01DX001 (ip), vehicle: saline with Tween-80 95 % of control | dose: 400.0 mg/kg/injection, schedule: Q01DX001 (ip), vehicle: saline with Tween-80 100 % of control

CCN(c1c(C)cc(C)c(N(CC(=O)O)S(=O)(=O)c2ccccc2)c1C)S(=O)(=O)c1ccccc1
inactive: [1] 101 % of control | dose: 100.0 mg/kg/injection, schedule: Q04DX003 (ip), vehicle: saline 94 % of control | [2] 97 % of control | dose: 200.0 mg/kg/injection, schedule: Q04DX003 (ip), vehicle: saline 100 % of control | dose: 400.0 mg/kg/injection, schedule: Q01DX009 (ip), vehicle: saline with Tween-80 95 % of control | dose: 400.0 mg/kg/injection, schedule: Q04DX003 (ip), vehicle: saline 103 % of control

CCCCSSC(Cl)(Cl)Cl
inactive: dose: 6.25 mg/kg/injection, schedule: Q01DX009 (ip), vehicle: carboxymethylcellulose (CMC) 96 % of control and 104 % of control | dose: 12.5 mg/kg/injection, schedule: Q01DX001 (ip), vehicle: carboxymethylcellulose (CMC) 98 % of control | dose: 12.5 mg/kg/injection, schedule: Q01DX009 (ip), vehicle: carboxymethylcellulose (CMC) 101 % of control and 89 % of control | dose: 12.5 mg/kg/injection, schedule: Q04DX003 (ip), vehicle: carboxymethylcellulose (CMC) 96 % of control | dose: 25.0 mg/kg/injection, schedule: Q01DX001 (ip), vehicle: carboxymethylcellulose (CMC) 95 % of control | dose: 25.0 mg/kg/injection, schedule: Q01DX009 (ip), vehicle: carboxymethylcellulose (CMC) 96 % of control | dose: 25.0 mg/kg/injection, schedule: Q04DX002 (ip), vehicle: carboxymethylcellulose (CMC) 95 % of control and 107 % of control | dose: 25.0 mg/kg/injection, schedule: Q04DX003 (ip), vehicle: carboxymethylcellulose (CMC) 96 % of control | dose: 50.0 mg/kg/injection, schedule: Q01DX001 (ip), vehicle: carboxymethylcellulose (CMC) 88 % of control | dose: 50.0 mg/kg/injection, schedule: Q04DX002 (ip), vehicle: carboxymethylcellulose (CMC) 95 % of control and 101 % of control | dose: 50.0 mg/kg/injection, schedule: Q04DX003 (ip), vehicle: carboxymethylcellulose (CMC) 103 % of control and 91 % of control | dose: 200.0 mg/kg/injection, schedule: Q04DX002 (ip), vehicle: carboxymethylcellulose (CMC) 86 % of control

OC1(c2cccc3ccccc23)CCCCC1
inactive: dose: 50.0 mg/kg/injection, schedule: Q01DX009 (ip), vehicle: saline with Tween-80 100 % of control | [1] 94 % of control | [3] 94 % of control | [2] 103 % of control | dose: 200.0 mg/kg/injection, schedule: Q04DX003 (ip), vehicle: saline with Tween-80 91 % of control

S=c1nc[nH]c2ccccc12
inactive: dose: 100.0 mg/kg/injection, schedule: Q01DX009 (ip), vehicle: Klucel (hydroxypropylcellulose) (HPC) 93 % of control | dose: 100.0 mg/kg/injection, schedule: Q04DX003 (ip), vehicle: Klucel (hydroxypropylcellulose) (HPC) 91 % of control | dose: 200.0 mg/kg/injection, schedule: Q01DX009 (ip), vehicle: Klucel (hydroxypropylcellulose) (HPC) 95 % of control | dose: 200.0 mg/kg/injection, schedule: Q04DX003 (ip), vehicle: Klucel (hydroxypropylcellulose) (HPC) 94 % of control | dose: 400.0 mg/kg/injection, schedule: Q01DX009 (ip), vehicle: Klucel (hydroxypropylcellulose) (HPC) 88 % of control | dose: 400.0 mg/kg/injection, schedule: Q04DX003 (ip), vehicle: Klucel (hydroxypropylcellulose) (HPC) 98 % of control

O=C(C(=O)N1CC1)c1c[nH]c2ccccc12
inactive: dose: 25.0 mg/kg/injection, schedule: Q04DX003 (ip), vehicle: saline with Tween-80 95 % of control | dose: 50.0 mg/kg/injection, schedule: Q04DX003 (ip), vehicle: saline with Tween-80 91 % of control | [3] 95 % of control

Source: PubChem BioAssay AID248 (DTP/NCI, 2004)
